Measurements published in ChEMBL document CHEMBL2384947, “27-Nor-Δ(4)-dafachronic acid is a synthetic ligand of Caenorhabditis elegans DAF-12 receptor” (Bioorg Med Chem Lett, 2013).
Active and inactive are the calls of the source. The rule behind the calls is not given here.

Experiments:
Caenorhabditis elegans [1] = assay: Activation of DAF-12 receptor in Caenorhabditis elegans RG1228 harboring daf-9(rh50) mutant assessed as mig phenotype rescue at 250 nM after 3 days
Caenorhabditis elegans [2] = assay: Reduction in resistance to H2O2-induced oxidative stress in wild type Caenorhabditis elegans N2 assessed as survival at 250 nM incubated 1 hr prior to H2O2 challenge relative to control; format: functional, organism-based
[3] = (§1) Transactivation of Caenorhabditis elegans DAF-12 receptor LBD transfected in HEK293 cells co-expressing Gal4-DBD after 20 hrs by luciferase reporter gene assay; format: cell-based; conditions: HEK293, 20 h
HEK293 = assay: as §1; format: cell-based
Caenorhabditis elegans [4] = assay: Reduction in resistance to H2O2-induced oxidative stress in Caenorhabditis elegans RG1228 harboring daf-9(rh50) mutant assessed as survival at 250 nM incubated 1 hr prior to H2O2 challenge; format: functional, organism-based

- Activity (Caenorhabditis elegans [1]): Active
- EC50 [3]: 10 µM
SMILES: C[C@H](CCCCC(=O)O)[C@H]1CC[C@H]2[C@@H]3CCC4=CC(=O)CC[C@]4(C)[C@H]3CC[C@]12C
- Activity (Caenorhabditis elegans [2]): Active
- Activity (HEK293): Dose-dependent effect
- Activity (Caenorhabditis elegans [4]): Active
